Experimental data taken from ChEMBL document CHEMBL3217488, “Preliminary in vitro evaluation of N-(benzofuroxan-5-yl)methylene benzohydrazide derivatives as potential anti-Trypanosoma cruzi agents” (Medchemcomm, 2012).

Legend:
[1] = tested on: Trypanosoma cruzi; assay: Antitrypanosomal activity against epimastigote stage of Trypanosoma cruzi Y assessed as parasite growth inhibition at 20 ug/mL after 72 hrs by spectrophotometric analysis relative to control; format: functional; conditions: read-out: GI
[2] = tested on: Trypanosoma cruzi; assay: Antitrypanosomal activity against epimastigote stage of Trypanosoma cruzi Y assessed as parasite growth inhibition at 10 ug/mL after 72 hrs by spectrophotometric analysis relative to control; format: functional; conditions: read-out: GI
[3] = tested on: Trypanosoma cruzi; assay: Antitrypanosomal activity against epimastigote stage of Trypanosoma cruzi Y assessed as parasite growth inhibition at 50 ug/mL after 72 hrs by spectrophotometric analysis relative to control; format: functional; conditions: read-out: GI
[4] = Genotoxicity in human bronchial epithelial cells assessed as increase of micronucleated cells at 50 ug/mL after 24 hrs by acridine orange staining-based fluorescence microscopic analysis; format: toxicity; conditions: epithelial cell

| SMILES | inhibition of growth at 20 µg/mL [1] | inhibition of growth at 10 µg/mL [2] | inhibition of growth at 50 µg/mL [3] | Activity [4] |
| --- | --- | --- | --- | --- |
| O=C(N/N=C/c1ccc2c(c1)no[n+]2[O-])c1ccc(Cl)c(Cl)c1 | 81% | 51% | 75% |  |
| O=C(N/N=C/c1ccc2c(c1)no[n+]2[O-])c1ccc([N+](=O)[O-])c(C(F)(F)F)c1 | 82% | 54% | 82% |  |
| O=C(N/N=C/c1ccc2c(c1)no[n+]2[O-])c1ccc(Cl)cc1Cl | 72% | 42% | 89% |  |
| O=C(N/N=C/c1ccc2c(c1)no[n+]2[O-])c1ccc([N+](=O)[O-])cc1 | 73% | 13% | 73% |  |
| CCc1ccc(C(=O)N/N=C/c2ccc3c(c2)no[n+]3[O-])cc1 | 76% | 47% | 85% |  |
| CCOc1ccc(C(=O)N/N=C/c2ccc3c(c2)no[n+]3[O-])cc1 | 68% | 32% | 66% |  |
| Cc1ccc(C(=O)N/N=C/c2ccc3c(c2)no[n+]3[O-])cc1 | 62% | 34% | 76% |  |
| O=C(N/N=C/c1ccc2c(c1)no[n+]2[O-])c1ccc(Br)cc1 | 76% | 44% | 58% |  |
| O=C(N/N=C/c1ccc2c(c1)no[n+]2[O-])c1ccc(Cl)cc1 | 83% | 54% | 62% | Non-toxic |
| CC(=O)c1ccc(C(=O)N/N=C/c2ccc3c(c2)no[n+]3[O-])cc1 | 34% | 14% | 83% |  |
| O=C(N/N=C/c1ccc2c(c1)no[n+]2[O-])c1ccccc1 | 82% | 46% | 95% | Non-toxic |
| Nc1ccc(C(=O)N/N=C/c2ccc3c(c2)no[n+]3[O-])cc1 | 24% | 7% | 42% |  |
| N#Cc1ccc(C(=O)N/N=C/c2ccc3c(c2)no[n+]3[O-])cc1 | 39% | 8% | 44% |  |
| O=C(N/N=C/c1ccc2c(c1)no[n+]2[O-])c1ccc(O)cc1 | 3% | 0% | 47% |  |
| O=C(N/N=C/c1ccc2c(c1)no[n+]2[O-])c1ccc(F)cc1 | 79% | 45% | 78% |  |
| O=C(N/N=C/c1ccc2c(c1)no[n+]2[O-])c1ccc(I)cc1 | 81% | 54% | 60% |  |
| O=C(N/N=C/c1ccc2c(c1)no[n+]2[O-])c1ccc(C(F)(F)F)cc1 | 86% | 65% | 82% | Non-toxic |
| COc1ccc(C(=O)N/N=C/c2ccc3c(c2)no[n+]3[O-])cc1 | 69% | 36% | 76% |  |
| CN(C)c1ccc(C(=O)N/N=C/c2ccc3c(c2)no[n+]3[O-])cc1 | 7% | 4% | 10% |  |
| NS(=O)(=O)c1ccc(C(=O)N/N=C/c2ccc3c(c2)no[n+]3[O-])cc1 | 9% | 5% | 12% |  |
| O=C(Cn1ccnc1[N+](=O)[O-])NCc1ccccc1 [BENZNIDAZOLE] | 66% | 44% | 77% |  |
